Assay results as given in ChEMBL document CHEMBL3400103, “Synthesis and biological evaluation of novel HIV-1 protease inhibitors using tertiary amine as P2-ligands” (Bioorg Med Chem Lett, 2015).

target: Protease (Human immunodeficiency virus 1, UniProt Q9YQ12); experiment: Inhibition of HIV1 protease expressed in Escherichia coli incubated for 20 to 30 mins at room temperature using (Arg-Glu(EDANS)-Ser-Gln-Asn-Tyr-Pro-Ile-Val-Gln-Lys(DABCYL)-Arg) substrate by FRET method
Sequence (Q9YQ12 whole entry): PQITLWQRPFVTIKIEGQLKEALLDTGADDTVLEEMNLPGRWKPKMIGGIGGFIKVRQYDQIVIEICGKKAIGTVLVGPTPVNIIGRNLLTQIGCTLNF

| IC50 [nM] | Compound |
| --- | --- |
| 370 | COc1ccc(N(CC(=O)N[C@@H](Cc2ccccc2)[C@H](O)CN(CC(C)C)S(=O)(=O)c2ccc(CO)cc2)CC(=O)N(C)C)cc1 |
| > 20000 | Cc1c(O)cccc1N(CC(=O)N[C@@H](Cc1ccccc1)[C@@H](O)CN(CC(C)C)S(=O)(=O)c1ccc([N+](=O)[O-])cc1)CC(=O)N1CCOCC1 |
| 610 | Cc1c(O)cccc1N(CC(=O)N[C@@H](Cc1ccccc1)[C@H](O)CN(CC(C)C)S(=O)(=O)c1ccc([N+](=O)[O-])cc1)CC(=O)N(C)C |
| 290 | Cc1cccc(C)c1N(CC(=O)N[C@@H](Cc1ccccc1)[C@H](O)CN(CC(C)C)S(=O)(=O)c1ccc(CO)cc1)CC(=O)N(C)C |
| 6960 | COc1ccc(N(CC(=O)N[C@@H](Cc2ccccc2)[C@@H](O)CN(CC(C)C)S(=O)(=O)c2ccc(N)cc2)CC(=O)N(C)C)cc1 |
| 5880 | Cc1cccc(C)c1N(CC(=O)N[C@@H](Cc1ccccc1)[C@@H](O)CN(CC(C)C)S(=O)(=O)c1ccc([N+](=O)[O-])cc1)CC(=O)N(C)C |
| 5870 | Cc1cccc(C)c1N(CC(=O)N[C@@H](Cc1ccccc1)[C@@H](O)CN(CC(C)C)S(=O)(=O)c1ccc([N+](=O)[O-])cc1)CC(=O)N1CCOCC1 |
| 490 | Cc1cccc(C)c1N(CC(=O)N[C@@H](Cc1ccccc1)[C@@H](O)CN(CC(C)C)S(=O)(=O)c1ccc(N)cc1)CC(=O)N(C)C |
| 16100 | Cc1c(O)cccc1N(CC(=O)N[C@@H](Cc1ccccc1)[C@@H](O)CN(CC(C)C)S(=O)(=O)c1ccc(N)cc1)CC(=O)N1CCOCC1 |
| 2590 | Cc1cccc(C)c1N(CC(=O)N[C@@H](Cc1ccccc1)[C@@H](O)CN(CC(C)C)S(=O)(=O)c1ccc(N)cc1)CC(=O)N1CCOCC1 |
| > 20000 | COc1ccc(N(CC(=O)N[C@@H](Cc2ccccc2)[C@@H](O)CN(CC(C)C)S(=O)(=O)c2ccc([N+](=O)[O-])cc2)CC(=O)N(C)C)cc1 |
| > 20000 | COc1ccc(N(CC(=O)N[C@@H](Cc2ccccc2)[C@@H](O)CN(CC(C)C)S(=O)(=O)c2ccc(OC)cc2)CC(=O)N2CCOCC2)cc1 |
| 5780 | COc1ccc(S(=O)(=O)N(CC(C)C)C[C@H](O)[C@H](Cc2ccccc2)NC(=O)CN(CC(=O)N(C)C)c2cccc(O)c2C)cc1 |
| 6810 | COc1ccc(N(CC(=O)N[C@@H](Cc2ccccc2)[C@@H](O)CN(CC(C)C)S(=O)(=O)c2ccc(N)cc2)CC(=O)N2CCOCC2)cc1 |
| 150 | Cc1c(O)cccc1N(CC(=O)N[C@@H](Cc1ccccc1)[C@H](O)CN(CC(C)C)S(=O)(=O)c1ccc(CO)cc1)CC(=O)N(C)C |
| 8650 | COc1ccc(S(=O)(=O)N(CC(C)C)C[C@H](O)[C@H](Cc2ccccc2)NC(=O)CN(CC(=O)N2CCOCC2)c2c(C)cccc2C)cc1 |
| 290 | COc1ccc(N(CC(=O)N[C@@H](Cc2ccccc2)[C@H](O)CN(CC(C)C)S(=O)(=O)c2ccc(OC)cc2)CC(=O)N2CCOCC2)cc1 |
| 1360 | Cc1cccc(C)c1N(CC(=O)N[C@@H](Cc1ccccc1)[C@H](O)CN(CC(C)C)S(=O)(=O)c1ccc(N)cc1)CC(=O)N(C)C |
| 73 | Cc1cccc(C)c1N(CC(=O)N[C@@H](Cc1ccccc1)[C@H](O)CN(CC(C)C)S(=O)(=O)c1ccc(CO)cc1)CC(=O)N1CCOCC1 |
| 1360 | COc1ccc(N(CC(=O)N[C@@H](Cc2ccccc2)[C@H](O)CN(CC(C)C)S(=O)(=O)c2ccc(N)cc2)CC(=O)N2CCOCC2)cc1 |
| 210 | COc1ccc(N(CC(=O)N[C@@H](Cc2ccccc2)[C@H](O)CN(CC(C)C)S(=O)(=O)c2ccc([N+](=O)[O-])cc2)CC(=O)N(C)C)cc1 |
| 7410 | Cc1c(O)cccc1N(CC(=O)N[C@@H](Cc1ccccc1)[C@@H](O)CN(CC(C)C)S(=O)(=O)c1ccc([N+](=O)[O-])cc1)CC(=O)N(C)C |
| > 20000 | COc1ccc(S(=O)(=O)N(CC(C)C)C[C@H](O)[C@H](Cc2ccccc2)NC(=O)CN(CC(=O)N(C)C)c2c(C)cccc2C)cc1 |
| 6120 | Cc1c(O)cccc1N(CC(=O)N[C@@H](Cc1ccccc1)[C@@H](O)CN(CC(C)C)S(=O)(=O)c1ccc(CO)cc1)CC(=O)N1CCOCC1 |

| IC50 [nM] | Compound |
| --- | --- |
| 180 | COc1ccc(S(=O)(=O)N(CC(C)C)C[C@@H](O)[C@H](Cc2ccccc2)NC(=O)CN(CC(=O)N(C)C)c2c(C)cccc2C)cc1 |
| 5340 | COc1ccc(N(CC(=O)N[C@@H](Cc2ccccc2)[C@@H](O)CN(CC(C)C)S(=O)(=O)c2ccc(CO)cc2)CC(=O)N(C)C)cc1 |
| 73 | Cc1cccc(C)c1N(CC(=O)N[C@@H](Cc1ccccc1)[C@H](O)CN(CC(C)C)S(=O)(=O)c1ccc([N+](=O)[O-])cc1)CC(=O)N1CCOCC1 |
| 8940 | Cc1cccc(C)c1N(CC(=O)N[C@@H](Cc1ccccc1)[C@@H](O)CN(CC(C)C)S(=O)(=O)c1ccc(CO)cc1)CC(=O)N1CCOCC1 |
| 64 | Cc1cccc(C)c1N(CC(=O)N[C@@H](Cc1ccccc1)[C@H](O)CN(CC(C)C)S(=O)(=O)c1ccc(N)cc1)CC(=O)N1CCOCC1 |
| 140 | COc1ccc(N(CC(=O)N[C@@H](Cc2ccccc2)[C@H](O)CN(CC(C)C)S(=O)(=O)c2ccc(N)cc2)CC(=O)N(C)C)cc1 |
| > 20000 | COc1ccc(N(CC(=O)N[C@@H](Cc2ccccc2)[C@@H](O)CN(CC(C)C)S(=O)(=O)c2ccc(OC)cc2)CC(=O)N(C)C)cc1 |
| 290 | Cc1cccc(C)c1N(CC(=O)N[C@@H](Cc1ccccc1)[C@H](O)CN(CC(C)C)S(=O)(=O)c1ccc([N+](=O)[O-])cc1)CC(=O)N(C)C |
| > 20000 | COc1ccc(N(CC(=O)N[C@@H](Cc2ccccc2)[C@@H](O)CN(CC(C)C)S(=O)(=O)c2ccc(CO)cc2)CC(=O)N2CCOCC2)cc1 |
| > 20000 | COc1ccc(S(=O)(=O)N(CC(C)C)C[C@H](O)[C@H](Cc2ccccc2)NC(=O)CN(CC(=O)N2CCOCC2)c2cccc(O)c2C)cc1 |
| 540 | COc1ccc(S(=O)(=O)N(CC(C)C)C[C@@H](O)[C@H](Cc2ccccc2)NC(=O)CN(CC(=O)N(C)C)c2cccc(O)c2C)cc1 |
| 590 | Cc1c(O)cccc1N(CC(=O)N[C@@H](Cc1ccccc1)[C@H](O)CN(CC(C)C)S(=O)(=O)c1ccc(N)cc1)CC(=O)N(C)C |
| 2730 | Cc1c(O)cccc1N(CC(=O)N[C@@H](Cc1ccccc1)[C@H](O)CN(CC(C)C)S(=O)(=O)c1ccc(N)cc1)CC(=O)N1CCOCC1 |
| 220 | COc1ccc(N(CC(=O)N[C@@H](Cc2ccccc2)[C@H](O)CN(CC(C)C)S(=O)(=O)c2ccc(OC)cc2)CC(=O)N(C)C)cc1 |
| 1210 | Cc1c(O)cccc1N(CC(=O)N[C@@H](Cc1ccccc1)[C@H](O)CN(CC(C)C)S(=O)(=O)c1ccc(CO)cc1)CC(=O)N1CCOCC1 |
| 1020 | COc1ccc(N(CC(=O)N[C@@H](Cc2ccccc2)[C@H](O)CN(CC(C)C)S(=O)(=O)c2ccc([N+](=O)[O-])cc2)CC(=O)N2CCOCC2)cc1 |
| 1380 | COc1ccc(S(=O)(=O)N(CC(C)C)C[C@@H](O)[C@H](Cc2ccccc2)NC(=O)CN(CC(=O)N2CCOCC2)c2cccc(O)c2C)cc1 |
| 15 | COc1ccc(S(=O)(=O)N(CC(C)C)C[C@@H](O)[C@H](Cc2ccccc2)NC(=O)CN(CC(=O)N2CCOCC2)c2c(C)cccc2C)cc1 |
| > 20000 | Cc1c(O)cccc1N(CC(=O)N[C@@H](Cc1ccccc1)[C@@H](O)CN(CC(C)C)S(=O)(=O)c1ccc(CO)cc1)CC(=O)N(C)C |
| 19200 | COc1ccc(N(CC(=O)N[C@@H](Cc2ccccc2)[C@@H](O)CN(CC(C)C)S(=O)(=O)c2ccc([N+](=O)[O-])cc2)CC(=O)N2CCOCC2)cc1 |
| 17300 | Cc1cccc(C)c1N(CC(=O)N[C@@H](Cc1ccccc1)[C@@H](O)CN(CC(C)C)S(=O)(=O)c1ccc(CO)cc1)CC(=O)N(C)C |
| 5920 | Cc1c(O)cccc1N(CC(=O)N[C@@H](Cc1ccccc1)[C@@H](O)CN(CC(C)C)S(=O)(=O)c1ccc(N)cc1)CC(=O)N(C)C |
| 6670 | Cc1c(O)cccc1N(CC(=O)N[C@@H](Cc1ccccc1)[C@H](O)CN(CC(C)C)S(=O)(=O)c1ccc([N+](=O)[O-])cc1)CC(=O)N1CCOCC1 |
| 890 | COc1ccc(N(CC(=O)N[C@@H](Cc2ccccc2)[C@H](O)CN(CC(C)C)S(=O)(=O)c2ccc(CO)cc2)CC(=O)N2CCOCC2)cc1 |
